Test results reported in the NIST ThermoML archive (doi:10.1016/j.jct.2017.03.032).

Test: wn = mass fraction of the nth substance listed
Details: Gas, Burnett expansion method

F/C=C/C(F)(F)F [trans-1,3,3,3-tetrafluoropropene] + CC(C)C
Details	mass density [kg/m3]
315.14 K, 227.3 kPa, w1 = 0.65	7.7977
315.14 K, 297.2 kPa, w1 = 0.65	10.348
315.14 K, 301.4 kPa, w1 = 0.75	11.3213
315.14 K, 386 kPa, w1 = 0.65	13.7325
315.14 K, 392.5 kPa, w1 = 0.75	15.0241
315.14 K, 497.8 kPa, w1 = 0.65	18.2238
315.14 K, 506.8 kPa, w1 = 0.75	19.9379
315.14 K, 642.7 kPa, w1 = 0.75	26.4588
315.15 K, 173.5 kPa, w1 = 0.65	5.8759
315.15 K, 173.8 kPa, w1 = 0.7	6.1345
315.15 K, 175.6 kPa, w1 = 0.75	6.4285
315.15 K, 190.1 kPa, w1 = 0.85	7.5778
315.15 K, 229.1 kPa, w1 = 0.7	8.1409
315.15 K, 230.4 kPa, w1 = 0.75	8.531
315.15 K, 249.3 kPa, w1 = 0.85	10.0562
315.15 K, 299.1 kPa, w1 = 0.7	10.8034
315.15 K, 325.7 kPa, w1 = 0.85	13.3452
315.15 K, 390.1 kPa, w1 = 0.7	14.3368
315.15 K, 422.3 kPa, w1 = 0.85	17.7101
315.15 K, 497.7 kPa, w1 = 0.7	19.0258
315.15 K, 539.7 kPa, w1 = 0.85	23.5026
315.16 K, 185.3 kPa, w1 = 0.8	7.0584
315.16 K, 317.7 kPa, w1 = 0.8	12.4305
315.16 K, 333.2 kPa, w1 = 0.9	14.2331
315.16 K, 412.2 kPa, w1 = 0.8	16.4962
315.16 K, 529.7 kPa, w1 = 0.8	21.8918
315.17 K, 148.1 kPa, w1 = 0.9	6.0901
315.17 K, 194.6 kPa, w1 = 0.9	8.0819
315.17 K, 243 kPa, w1 = 0.8	9.3669
315.17 K, 255.2 kPa, w1 = 0.9	10.7253
315.17 K, 432.8 kPa, w1 = 0.9	18.8881
315.17 K, 551.9 kPa, w1 = 0.9	25.0657
320.12 K, 779.8 kPa, w1 = 0.8	33.8752
320.13 K, 286 kPa, w1 = 0.8	10.922
320.13 K, 373.2 kPa, w1 = 0.8	14.4942
320.13 K, 483.3 kPa, w1 = 0.8	19.2347
320.13 K, 616.7 kPa, w1 = 0.8	25.5259
320.14 K, 165.2 kPa, w1 = 0.8	6.2018
320.14 K, 168.8 kPa, w1 = 0.9	6.8698
320.14 K, 218.3 kPa, w1 = 0.8	8.2301
320.14 K, 221.7 kPa, w1 = 0.9	9.1166
320.14 K, 290.4 kPa, w1 = 0.9	12.0982
320.14 K, 378.8 kPa, w1 = 0.9	16.0551
320.14 K, 491 kPa, w1 = 0.9	21.3061
320.14 K, 621.3 kPa, w1 = 0.9	28.2744
320.15 K, 148.8 kPa, w1 = 0.7	5.1243
320.15 K, 195.8 kPa, w1 = 0.7	6.8002
320.15 K, 256.8 kPa, w1 = 0.7	9.0242
320.15 K, 335.6 kPa, w1 = 0.7	11.9756
320.15 K, 340.3 kPa, w1 = 0.65	11.7766
320.15 K, 435.2 kPa, w1 = 0.7	15.8926
320.15 K, 441.3 kPa, w1 = 0.65	15.6283
320.15 K, 556 kPa, w1 = 0.7	21.0901
320.15 K, 569.2 kPa, w1 = 0.65	20.7395
320.16 K, 152 kPa, w1 = 0.65	5.039
320.16 K, 154 kPa, w1 = 0.75	5.5344
320.16 K, 199.9 kPa, w1 = 0.65	6.687
320.16 K, 262 kPa, w1 = 0.65	8.8741
320.16 K, 266.1 kPa, w1 = 0.75	9.7466
320.16 K, 347.7 kPa, w1 = 0.75	12.9343
320.16 K, 577.4 kPa, w1 = 0.75	22.7785
320.16 K, 730.8 kPa, w1 = 0.75	30.2287
320.17 K, 203 kPa, w1 = 0.75	7.3444
320.17 K, 451.9 kPa, w1 = 0.75	17.1645
320.19 K, 162.2 kPa, w1 = 0.85	6.3277
320.19 K, 214.1 kPa, w1 = 0.85	8.3973
320.19 K, 279.4 kPa, w1 = 0.85	11.1439
320.19 K, 364.7 kPa, w1 = 0.85	14.7884
320.19 K, 472.3 kPa, w1 = 0.85	19.6252
320.19 K, 605 kPa, w1 = 0.85	26.0438
320.19 K, 764.8 kPa, w1 = 0.85	34.5619
325.1 K, 181 kPa, w1 = 0.85	6.9723
325.1 K, 219.4 kPa, w1 = 0.75	7.845
325.1 K, 287.7 kPa, w1 = 0.75	10.4108
325.1 K, 311.6 kPa, w1 = 0.85	12.2787
325.1 K, 374.7 kPa, w1 = 0.75	13.8158
325.1 K, 406.4 kPa, w1 = 0.85	16.2947
325.1 K, 488 kPa, w1 = 0.75	18.3343
